Values after ≈ are worked out from the molar mass of the structure shown.
How the values were obtained:
Assay in all cases: in vitro antibacterial evaluation, MIC by broth dilution
Format in all cases: cell-based
Settings in all cases: broth dilution, 18 hours at 35° C.
Streptococcus sp. = tested on: Streptococcus sp.
Method: (§1) Methods for in vitro Antibacterial Evaluation (Table 1)
(§2) The minimum inhibitory concentration (MIC), the lowest concentration of the antibiotic which inhibits growth of the test organism, is determined by the broth dilution method using Muller-Hinton II […] (Baltimore Biological Laboratories) following the recommendations of the National Committee for Clinical Laboratory Standards [Methods for dilution antimicrobial susceptibility tests for bacteria that grow aerobically, approved standard M7-A2, National Committee for Clinical Laboratory Standards, Villanova, Pa.].
(§3) An inoculum level of 5×10^5 CFU/mL, and a range of antibiotic concentrations (64-0.06 μg/mL) is used. […] The test organisms include a spectrum of Gram-positive bacteria comprised of Staphylococcus sp., Streptococcus sp. and Enterococcus sp. These organisms include recent clinical isolates that are resistant to methicillin, penicillin and/or vancomycin.

Enterococcus sp. = tested on: Enterococcus sp.
Method: as §1, §2, §3

Staphylococcus sp. = tested on: Staphylococcus sp.
Method: as §1, §2, §3

Escherichia coli = tested on: Escherichia coli
Outline: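 Broth dilution MIC per NCCLS M7-A2 in Mueller-Hinton II medium, inoculum 5×10^5 CFU/mL, antibiotic range 64-0.06 μg/mL. MIC taken as lowest concentration inhibiting growth.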

Q: What does the source list for `CC(c1ccccc1)C1NC(=O)CNC(=O)C(CO)NC(=O)C(C(O)C2CNC(=N)N2C2OC(CO)C(O)C(O)C2O)NC(=O)C(C(O)C2CNC(=N)N2)NC(=O)C(Cc2ccc3oc(SCC(=O)c4ccc(Cl)cc4)nc3c2)NC1=O` (stereo not shown) [Example 49]?
A: MIC Streptococcus pneumoniae (ATCC 6301) (Streptococcus sp.; strain ATCC 6301): 8 µg/mL (≈ 6.78 µM); MIC Streptococcus pneumoniae (GC 1894) (Streptococcus sp.; strain GC 1894): 8 µg/mL (≈ 6.78 µM); MIC Streptococcus pyogenes (GC 4563) (Streptococcus sp.; strain GC 4563): 2 µg/mL (≈ 1.69 µM); MIC Streptococcus agalactiae (GC 4564) (Streptococcus sp.; strain GC 4564): 4 µg/mL (≈ 3.39 µM); MIC Streptococcus pneumoniae (GC 4565) (Streptococcus sp.; strain GC 4565): 8 µg/mL (≈ 6.78 µM); MIC Enterococcus faecalis (ATCC 29212) (Enterococcus sp.; strain ATCC 29212): 16 µg/mL (≈ 13.6 µM); MIC Enterococcus faecalis (GC 2242) (Enterococcus sp.; strain GC 2242): 16 µg/mL (≈ 13.6 µM); MIC Enterococcus faecium (GC 2243) (Enterococcus sp.; strain GC 2243): 8 µg/mL (≈ 6.78 µM); MIC Enterococcus faecalis (GC 2691) (Enterococcus sp.; strain GC 2691): 16 µg/mL (≈ 13.6 µM); MIC Enterococcus faecalis (GC 3059) (Enterococcus sp.; strain GC 3059): 32 µg/mL (≈ 27.1 µM); MIC Enterococcus faecalis (GC 4552) (Enterococcus sp.; strain GC 4552): 2 µg/mL (≈ 1.69 µM); MIC Enterococcus faecalis (GC 4553) (Enterococcus sp.; strain GC 4553): 4 µg/mL (≈ 3.39 µM); MIC Enterococcus faecalis (GC 4554) (Enterococcus sp.; strain GC 4554): 16 µg/mL (≈ 13.6 µM); MIC Enterococcus faecium (GC 4556) (Enterococcus sp.; strain GC 4556): 8 µg/mL (≈ 6.78 µM); MIC Enterococcus faecium (GC 4557) (Enterococcus sp.; strain GC 4557): 2 µg/mL (≈ 1.69 µM); MIC Enterococcus avium (GC 4558) (Enterococcus sp.; strain GC 4558): 4 µg/mL (≈ 3.39 µM); MIC Enterococcus faecalis (GC 6189) (Enterococcus sp.; strain GC 6189): 16 µg/mL (≈ 13.6 µM); MIC Staphylococcus aureus (ATCC 29213) (Staphylococcus sp.; strain ATCC 29213): 8 µg/mL (≈ 6.78 µM); MIC Staphylococcus aureus (GC 1131) (Staphylococcus sp.; strain GC 1131): 4 µg/mL (≈ 3.39 µM); MIC Staphylococcus aureus (GC 3051) (Staphylococcus sp.; strain GC 3051): 4 µg/mL (≈ 3.39 µM); MIC Staphylococcus aureus (GC 3053) (Staphylococcus sp.; strain GC 3053): 4 µg/mL (≈ 3.39 µM); MIC Staphylococcus aureus (GC 4541) (Staphylococcus sp.; strain GC 4541): 4 µg/mL (≈ 3.39 µM); MIC Staphylococcus aureus (GC 4542) (Staphylococcus sp.; strain GC 4542): 4 µg/mL (≈ 3.39 µM); MIC Staphylococcus aureus-SMITH (GC 4543) (Staphylococcus sp.; strain GC 4543): 2 µg/mL (≈ 1.69 µM); MIC Staphylococcus aureus (GC 4544) (Staphylococcus sp.; strain GC 4544): 4 µg/mL (≈ 3.39 µM); MIC Staphylococcus aureus (GC 4545) (Staphylococcus sp.; strain GC 4545): 2 µg/mL (≈ 1.69 µM); MIC Staphylococcus haemolyticus (GC 4546) (Staphylococcus sp.; strain GC 4546): 1 µg/mL (≈ 0.847 µM); MIC Coagulase Negative Staphylococcus (GC 4547) (Staphylococcus sp.; strain GC 4547): 4 µg/mL (≈ 3.39 µM); MIC Coagulase Negative Staphylococcus (GC 4548) (Staphylococcus sp.; strain GC 4548): 2 µg/mL (≈ 1.69 µM); MIC Coagulase Negative Staphylococcus (GC 4549) (Staphylococcus sp.; strain GC 4549): 1 µg/mL (≈ 0.847 µM); MIC Coagulase Negative Staphylococcus (GC 4551) (Staphylococcus sp.; strain GC 4551): 4 µg/mL (≈ 3.39 µM); MIC Escherichia coli (ATCC 25922) (Escherichia coli; strain ATCC 25922): 16 µg/mL (≈ 13.6 µM); MIC Escherichia coli (GC 4559) (Escherichia coli; strain GC 4559): 8 µg/mL (≈ 6.78 µM); MIC Escherichia coli (GC 4560) (Escherichia coli; strain GC 4560): 4 µg/mL (≈ 3.39 µM)

— patent publication US6914045B2, “Glycopeptide antibiotics” (Wyeth Holdings Corporation, priority 2001, dated 2005)
